Source: patent EP0137083A1, “1,5-Benzothiazepine derivatives and production thereof” (HAMARI YAKUHIN KOGYO KABUSHIKI KAISHA also known as HAMARI …, priority 1983, dated 1985)

Tests used:
Format in all cases: in vivo
writhing syndrome = assay: Analgesic activity, mouse anti-writhing method (acetic acid-induced writhing); settings: mice, I.P., 45 minutes before acetic acid
Experimental: (2) Analgestic Activity (Mouse Anti-Writhing Method)
Groups of 5 mice each, weighing 26 - 32 g, were treated intraperitoneally with the compounds. The method is based on the antagonism of a writhing syndrome (abnormal contraction and twisting of the body) produced by the intraperitoneal injection of 10 ml/kg of 0.7 X acetic acid-saline solution. Ten minutes after the acetic acid injection, the number of writhes observed in a 10 minute counting period was recorded. The compound was administered 45 minutes before the acetic acid injection.

Mice = assay: Minimum lethal dose test in mice (mortality after intraperitoneal dosing); settings: I.P.; for No. of dead Animals, Day of test 0 / No. of dead Animals, Day of test 1 / No. of dead Animals, Day of test 2 / No. of dead Animals, Total: 2 animals
Experimental: (1) Minimum Lethal Dose Test in Mice
Groups of 2 mice each, weighing 29 - 36 g, were treated intraperitoneally with the compound and observed for signs of - central, autaonomic and toxic responses for 5 hours. Mortality counts were made on days 0, 1 and 2 (day 0 is the dosing day).

[1] = tested on: Yeast-induced Pyresis in Rats; assay: Anti-pyretic activity, temperature regulation in yeast-induced pyretic rats; settings: I.P.; for Rectal Temperature (C^o, Mean+ S.D.), Time after Treatment (hour) 0: 0 hour (just prior to drug administration); for Rectal Temperature (C^o, Mean+ S.D.), Time after Treatment (hour) 0.5: 0.5 hour; for Rectal Temperature (C^o, Mean+ S.D.), Time after Treatment (hour) 1.0: 1.0 hour; for Rectal Temperature (C^o, Mean+ S.D.), Time after Treatment (hour) 1.5: 1.5 hour; for Rectal Temperature (C^o, Mean+ S.D.), Time after Treatment (hour) 2.0: 2.0 hour; for Rectal Temperature, Change C^o: average at 0.5-2.0 hours versus vehicle (39.8)
Experimental: (3) Anti-pyretic Activity (Temperature Regulation in Pyretic Rats) Rats, weighing 220 - 300 g, were treated subcutaneously in the nape of the neck with 6 ml of 40 % suspension of dried Brewer's yeast in distilled water. Groups of 3 rats were treated intraperitoneally with the compound 17 hours challenge. Rectal temperature were recorded with a thermister type thermometer (Type BMA-77 produced by Natsume Seisalusho, Japan) just prior to the drug administration and at 30 minutes intervals for 2 hours.

[2] = 60 mg/kg, first series (vehicle 10.9 ± 8.9)
[3] = 60 mg/kg, second series (vehicle 12.8 ± 6.3)
[4] = 30 mg/kg, first series (vehicle 10.9 ± 8.9)

`COc1ccc(C2Sc3ccccc3N(CCN(C)C)C(=O)C2=O)cc1` (centres unmarked) [Ia, 2-(4-methoxyphenyl)-2,3-dihydro-5-(2-dimethylaminoethyl)-1,5-benzothiazepine-3,4(5H)-dione] was tested, and the “% Change from Control” value (writhing syndrome; [2]) was -92.7%, the “No. of Writhes (Mean + S.D.)” value (writhing syndrome; [2]) was 0.8 ± 1.3 and the “% Change from Control” value (writhing syndrome; [3]) was -100.0%. For the same compound, the “No. of Writhes (Mean + S.D.)” value (writhing syndrome; [3]) was 0.0 ± 0.0, the “No. of dead Animals, Day of test 0” value (Mice; 10 mg/kg) was 0 and the “No. of dead Animals, Day of test 1” value (Mice; 10 mg/kg) was 0. The “No. of dead Animals, Day of test 2” value (Mice; 10 mg/kg) was 0, the “No. of dead Animals, Total” value (Mice; 10 mg/kg) was 0 and the “No. of dead Animals, Day of test 0” value (Mice; 30 mg/kg) was 0. For the same compound, the “No. of dead Animals, Day of test 1” value (Mice; 30 mg/kg) was 0, the “No. of dead Animals, Day of test 2” value (Mice; 30 mg/kg) was 0 and the “No. of dead Animals, Total” value (Mice; 30 mg/kg) was 0. The “No. of dead Animals, Day of test 0” value (Mice; 100 mg/kg) was 0, the “No. of dead Animals, Day of test 1” value (Mice; 100 mg/kg) was 0 and the “No. of dead Animals, Day of test 2” value (Mice; 100 mg/kg) was 0. The “No. of dead Animals, Total” value (Mice; 100 mg/kg) was 0, the “No. of dead Animals, Day of test 0” value (Mice; 300 mg/kg) was 2 and the “No. of dead Animals, Total” value (Mice; 300 mg/kg) was 2. For the same compound, the “Minimum Acute Lethal Dose” value (Mice; mortality counted on days 0, 1 and 2) was 300 mg/kg, the “Rectal Temperature, Average at 0.5-2.0 Hours Post-tretment” value ([1]; 60 mg/kg) was 38.7 C^o and the “Rectal Temperature (C^o, Mean+ S.D.), Time after Treatment (hour) 0” value ([1]; 60 mg/kg) was 39.7±0.15 C^o. The “Rectal Temperature (C^o, Mean+ S.D.), Time after Treatment (hour) 0.5” value ([1]; 60 mg/kg) was 38.4±0.57 C^o, the “Rectal Temperature (C^o, Mean+ S.D.), Time after Treatment (hour) 1.0” value ([1]; 60 mg/kg) was 38.4±0.35 C^o and the “Rectal Temperature (C^o, Mean+ S.D.), Time after Treatment (hour) 1.5” value ([1]; 60 mg/kg) was 38.8±0.49 C^o. For the same compound, the “Rectal Temperature (C^o, Mean+ S.D.), Time after Treatment (hour) 2.0” value ([1]; 60 mg/kg) was 39.0±0.51 C^o and the “Rectal Temperature, Change C^o” value ([1]; 60 mg/kg) was -1.1 C^o.
With `Cc1c(N(C)C)c(=O)n(-c2ccccc2)n1C` [Amino-pyrin, reference compound] the “Rectal Temperature, Average at 0.5-2.0 Hours Post-tretment” value ([1]; 30 mg/kg) was 37.5 C^o, the “Rectal Temperature (C^o, Mean+ S.D.), Time after Treatment (hour) 0” value ([1]; 30 mg/kg) was 39.6±0.10 C^o and the “Rectal Temperature (C^o, Mean+ S.D.), Time after Treatment (hour) 0.5” value ([1]; 30 mg/kg) was 38.1±0.50 C^o. The “Rectal Temperature (C^o, Mean+ S.D.), Time after Treatment (hour) 1.0” value ([1]; 30 mg/kg) was 37.2±0.58 C^o, the “Rectal Temperature (C^o, Mean+ S.D.), Time after Treatment (hour) 1.5” value ([1]; 30 mg/kg) was 37.2±0.53 C^o and the “Rectal Temperature (C^o, Mean+ S.D.), Time after Treatment (hour) 2.0” value ([1]; 30 mg/kg) was 37.4±0.46 C^o. For the same compound, the “Rectal Temperature, Change C^o” value ([1]; 30 mg/kg) was -2.3 C^o.
`CC(C)=CCN1CCC2(C)c3cc(O)ccc3CC1C2C` (centres unmarked) [Pentazo-cine, reference compound] was tested, and the “% Change from Control” value (writhing syndrome; [4]) was -83.5% and the “No. of Writhes (Mean + S.D.)” value (writhing syndrome; [4]) was 1.8 ± 2.2.
